Data as given in patent publication EP1897937A1, “Method of culturing NPCs” (NeuroProgen GmbH Leipzig, priority 2006, dated 2008).

Legend:
Type in all cases: cell-based, human
hmNPCs [1] = experiment: Long-term proliferation: number of living cells (hemocytometer, trypan blue exclusion)
Procedure: (§1) To determine long-term proliferation, hmNPCs were plated and expanded for 2 passages with or without addition of various agents (see below) to the custom expansion media containing the growth factors EGF and FGF2. Different fetal midbrain tissues were included in this study. At the end of the proliferation period, differentiation of hmNPCs was induced via replacement of expansion media with mitogen-free media containing 1% FCS, 5 µM forskoline (Sigma-Aldrich Chemie GmbH Munich, Germany), and 100 pg/ml IL-1β (Sigma). The differentiation and expansion media were supplemented with different drugs as appropriate. Prior to immunocytochemistry or protein extraction, hmNPCs were allowed to differentiate for 1 week. To determine short-term proliferation via Ki67 immunostaining, the cells were seeded into 24-well plates (70,000 cells/well) and left overnight to rest. P2 receptor agonists (ATP, UTP, ATP + UTP, ADP, ADPβS) were supplied daily for 5 consecutive days. Ki67/nestin double-positive cells were counted in 8 randomly selected fields of nucleotide-treated or untreated samples. For the assessment of MAPK phosphorylation the cells were kept free of mitogens for 2 d prior to addition of the MEK-inhibitor in expansion media. In addition, the MEK-inhibitor was added during the differentiation period 15 min before UTP administration.
(§2) UTP, UDP, ATP, ADP, ADPβS and suramin were purchased from Sigma (Sigma-Aldrich Chemie GmbH Munich, Germany). UTP and UDP were applied at different concentrations (1 µM, 10 µM, 100 µM), ATP at 100 µM, ADP at 100 µM, and ADPβS at100 µM. During expansion of the cells, the nucleotides were renewed once a week with every media change, unless otherwise stated. They were applied once at the beginning of the differentiation period. The P2 receptor antagonist suramin (10 µM) was added to expansion media 30 min prior to addition of UTP (100 µM). The stock solution of the MEK1/2 inhibitor U0126 (Promega Corporation, Mannheim, Germany) was prepared in dimethyl sulfoxide (DMSO) at a concentration of 10 mM. The stock solution was then diluted in 0.1 M PBS to obtain a concentration of 1 mM. MEK inhibitor (final concentration 10 µM) was added to mitogen-free expansion media, 15 min before UTP treatment (1 µM) of hmNPCs.
Cell counting of control (untreated) and treated hmNPCs was performed using a hemocytometer. Adherent cells were collected by detachment with accutase™ (PAA Laboratories, Pasching, Austria) for 10 min at 37°C. […] The number of total and trypan blue-positive cells was then determined by counting at least 300 cells per sample in a hemocytometer.

ERK1/2 = ERK1/2 (MAPK) phosphorylation by Western blot
Procedure: as §1, §2
In order to prepare protein extracts, hmNPCs were collected, washed with ice-cold PBS and lysed in buffer [10 mM HEPES-KOH (pH 7.9), 10 mM KCI, 1.5 mM MgCl2, 0.1% NP-40], supplemented with protease inhibitor cocktail (Roche). After a brief centrifugation at 4°C/10 000×g, protein concentrations and protein yield from extracts were determined using the Bradford method (Bio-Rad, Hercules, CA, USA). To preserve the phosphorylation state of proteins, extracts for the MAPK experiment were obtained using the PhosphoSafe™ extraction reagent containing phophatase inhibitors (Novagen). […] Membranes were blocked with 5% (wt/vol) nonfat dry milk in PBS-T (PBS, 0.1% (vol/vol) Tween 20) for 2 h at room temperature and subsequently incubated with the desired primary antibody (diluted in PBS containing 5% non-fat milk and 0.1% Tween 20) overnight at 4 °C with gentle agitation. The membrane was incubated with horseradish peroxidase-coupled secondary antibody for 1 h at room temperature. […] The chemiluminescence was quantified using the AIDA, two-dimensional densitometry software (Raytest lsotopenmeb, Straubenhardt, Germany).

hmNPCs [2] = experiment: Short-term proliferation: Ki67/nestin immunostaining; details: Homo sapiens, 120 h, 1 µM, 5 subsequent days
Procedure: as §1, with “hmNPCs” left out, “μM” for “µM”, “administration. […] Cover-slips were mounted onto glass slides and examined under a fluorescence microscope (Zeiss Axiovert 200). Acquisition of the cells was performed using the Image-analysis software AxioVision 4 (Carl Zeiss AG, Jena, Germany). The following primary antibodies were used for immunofluorescence: rabbit polyclonal anti-β-tubulin III (anti-Tuj1) antibody, rabbit polyclonal anti-tyrosine hydroxylase antibody , mouse monoclonal anti-nestin antibody (Pharmingen, San Diego, CA, USA), rabbit polyclonal anti-Ki67 antigen antibody (Novocastra Laboratories Ltd, Newcastle upon Tyne, UK). Estimation of the TH-positive cell numbers was performed by counting of cells among approximately 1000 differentiated cells in total within 6 randomly selected fields.” for “administration.”

Structure (SMILES): O=c1ccn([C@@H]2O[C@H](COP(=O)(O)OP(=O)(O)OP(=O)(O)O)[C@@H](O)[C@H]2O)c(=O)[nH]1 [UTP, uridine 5'-triphosphate]
- number of living cells (hmNPCs [1]; 100 µM each, 2 weeks in expansion media, on coapplication ADP 30 min before UTP, 20160 min): 110 ± 6%
- activity at 1 µM (hmNPCs [1]; Homo sapiens, 336 h, 1 µM, 2 passages (approximately 2 weeks of expansion), control 100 ± 5%, read-out: number of living cells as compared to controls): 152 ± 6%
- performance of proliferating hmNPCs grown without mitogens (hmNPCs [1]; without EGF and FGF2, 1 µM once in 5 days): performed slightly better
- ERK1/2 (MAPK) phosphorylation (ERK1/2; 1 µM, 30 min, expansion media, mitogen-free): phosphorylated
- expression of phosphorylated ERK1/2 (ERK1/2; 100 µM, one week of differentiation): increased
- activity at 1 µM (hmNPCs [2]; read-out: NPCs double-immunoreactive for Ki67 and nestin): 193 ± 3%
- activity at 1 µM (hmNPCs [2]; read-out: cells immunoreactive for nestin alone): 188 ± 2%
